In the first test the target is LRRK2 (Homo sapiens (Human), UniProt Q5S007, G2019S). Description: In Vitro LRRK2 LabChip Assay. The format is biochemical. The conditions noted are these: Table 4. An outline of the steps:
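Potency (Ki in μM, IC50 or % inhibition) derived from capillary-electrophoresis separation of phospho- and unphosphorylated fluorescent peptide, with Ki fitted by a tight-binding model.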
LRRK2, sequence (Q5S007 970-2527 G2019S limits assumed): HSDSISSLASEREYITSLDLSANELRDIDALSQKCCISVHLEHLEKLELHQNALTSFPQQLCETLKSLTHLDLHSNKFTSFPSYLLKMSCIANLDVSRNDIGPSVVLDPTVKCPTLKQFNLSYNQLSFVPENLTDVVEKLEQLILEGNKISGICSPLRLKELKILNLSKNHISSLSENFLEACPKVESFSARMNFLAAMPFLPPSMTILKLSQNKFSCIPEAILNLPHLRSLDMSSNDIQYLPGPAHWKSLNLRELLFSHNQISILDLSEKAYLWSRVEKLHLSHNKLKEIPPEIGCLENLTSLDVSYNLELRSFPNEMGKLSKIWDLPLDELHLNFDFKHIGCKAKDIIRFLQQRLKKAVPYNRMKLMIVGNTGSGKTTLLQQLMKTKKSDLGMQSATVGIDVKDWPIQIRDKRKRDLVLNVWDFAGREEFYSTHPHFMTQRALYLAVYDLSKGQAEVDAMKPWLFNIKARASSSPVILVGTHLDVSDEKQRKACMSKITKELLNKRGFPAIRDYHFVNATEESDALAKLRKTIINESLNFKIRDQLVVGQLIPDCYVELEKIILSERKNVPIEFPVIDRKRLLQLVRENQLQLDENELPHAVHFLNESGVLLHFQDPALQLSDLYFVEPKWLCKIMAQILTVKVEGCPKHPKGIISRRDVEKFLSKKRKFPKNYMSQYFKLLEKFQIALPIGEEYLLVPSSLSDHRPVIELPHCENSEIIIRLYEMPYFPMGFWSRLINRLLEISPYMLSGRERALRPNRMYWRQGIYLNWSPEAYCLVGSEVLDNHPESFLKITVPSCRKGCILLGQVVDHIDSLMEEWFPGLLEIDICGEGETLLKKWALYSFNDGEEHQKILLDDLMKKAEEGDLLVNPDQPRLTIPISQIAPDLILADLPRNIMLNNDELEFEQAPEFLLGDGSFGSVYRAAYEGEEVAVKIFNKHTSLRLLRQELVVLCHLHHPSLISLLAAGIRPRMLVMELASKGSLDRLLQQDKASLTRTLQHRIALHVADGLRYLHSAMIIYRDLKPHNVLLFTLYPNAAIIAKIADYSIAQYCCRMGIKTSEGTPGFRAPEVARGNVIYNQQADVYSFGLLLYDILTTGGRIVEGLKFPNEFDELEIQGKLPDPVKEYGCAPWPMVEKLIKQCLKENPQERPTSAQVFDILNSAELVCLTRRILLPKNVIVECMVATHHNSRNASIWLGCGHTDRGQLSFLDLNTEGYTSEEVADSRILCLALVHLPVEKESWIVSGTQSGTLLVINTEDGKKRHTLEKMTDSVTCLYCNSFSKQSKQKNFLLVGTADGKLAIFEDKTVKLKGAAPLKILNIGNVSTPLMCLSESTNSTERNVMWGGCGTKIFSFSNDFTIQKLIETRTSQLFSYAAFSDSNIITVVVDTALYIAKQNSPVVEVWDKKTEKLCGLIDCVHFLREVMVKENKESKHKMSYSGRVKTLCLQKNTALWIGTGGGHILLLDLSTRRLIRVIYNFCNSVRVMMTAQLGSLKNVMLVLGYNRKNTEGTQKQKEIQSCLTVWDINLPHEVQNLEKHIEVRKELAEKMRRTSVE
Consider `COc1nc(Nc2ccc(C(=O)N3CCOCC3)cc2OC2CC2)ncc1Br` [Example 218, [4-(5-Bromo-4-methoxy-pyrimidin-2-ylamino)-3-cyclopropoxy-phenyl]-morpholin-4-yl-methanone], for which affinity was put at a Ki of 2.5 nM. Same read-out and setting: under `CNc1nc(Nc2ccc(C(=O)NCCCN)cc2OC)ncc1Cl` [Example 65, N-(3-Amino-propyl)-4-(5-chloro-4-methylamino-pyrimidin-2-ylamino)-3-methoxy-benzamide] stands 2.3 nM. Consider `COCCOc1nc(Nc2ccc(C(=O)N3CCOCC3)cc2OC2CCC2)ncc1Cl` [Example 187, {4-[5-Chloro-4-(2-methoxy-ethoxy)-pyrimidin-2-ylamino]-3-cyclobutoxy-phenyl}-morpholin-4-yl-methanone], for which the affinity, expressed as Ki, was 14.3 nM. `CCNc1nc(Nc2ccc(C(=O)N3CCOCC3)cc2OC(C)C)ncc1C(F)(F)F` [Example 252, (4-(4-(ethylamino)-5-(trifluoromethyl)pyrimidin-2-ylamino)-3-isopropoxyphenyl) (morpholino) methanone]: the Ki (usually a measure of affinity in units of concentration, obtained from inhibition or displacement) is 4.5 nM.

As for `CNc1nc(Nc2cc(F)c(C(=O)N(C)CC(C)(C)O)cc2OC)ncc1C(F)(F)F` [Example 248, 2-fluoro-N-(2-hydroxy-2-methylpropyl)-5-methoxy-N-methyl-4-(4-(methylamino)-5-(trifluoromethyl)pyrimidin-2-ylamino)benzamide], the Ki came out at 9.2 nM. Still for that read-out and setting: under `CNc1nc(Nc2ccc(C(=O)N3CCOCC3)cc2OC)ncc1OC` [Example 133, (3-methoxy-4-(5-methoxy-4-(methylamino)pyrimidin-2-ylamino)phenyl) (morpholino) methanone] stands 259 nM; under `CNc1nc(Nc2ccc(C(=O)N3CCOCC3)cc2O)ncc1Cl` [Example 82, [4-(5-Chloro-4-methylamino-pyrimidin-2-ylamino)-3-hydroxy-phenyl]-morpholin-4-yl-methanone], 28.9 nM; under `CNc1nc(Nc2cc(OC)c(C(=O)N3CCC(OC)C3)cc2Cl)ncc1C(F)(F)F` (stereo not drawn) [Example 246, (5-chloro-2-methoxy-4-(4-(methylamino)-5-(trifluoromethyl)pyrimidin-2-ylammo)phenyl)(3-methoxypyrrolidin-1-yl)methanone], 5 nM. On to `COc1cc(C(=O)N2CCOCC2)ccc1Nc1ncc(Cl)c(NCCC2CC2)n1` [Example 104, {4-[5-Chloro-4-(2-cyclopropyl-ethylamino)-pyrimidin-2-ylamino]-3-methoxy-phenyl}-morpholin-4-yl-methanone], for which the affinity, expressed as Ki, was 1.8 nM. Compared with the last compound, the Ki is about 2.8-fold lower. `COCCNc1nc(Nc2ccc(C(=O)N3CCOCC3)cc2OC)ncc1Cl` [Example 105, {4-[5-Chloro-4-(2-methoxy-ethylamino)-pyrimidin-2-ylamino]-3-methoxy-phenyl}-morpholin-4-yl-methanone]: the Ki was 9.4 nM.

As for `CNc1nc(Nc2ccc(C(=O)N(C)C)cc2OC)ncc1Cl` [Example 4, 4-(5-Chloro-4-methylamino-pyrimidin-2-ylamino)-3-methoxy-N,N-dimethyl-benzamide], the Ki came to 6.1 nM.

`CNc1nc(Nc2cc(OC)c(C(=O)NC(C)(C)C)cc2Cl)ncc1Cl` [Example 157, N-tert-Butyl-5-chloro-4-(5-chloro-4-methylamino-pyrimidin-2-ylamino)-2-methoxy-benzamide]: affinity was put at a Ki of 28.2 nM. This Ki is about 4.6-fold higher than that of the compound before.

`CNc1nc(Nc2ccc(C(=O)N3CCC3)cc2OC)ncc1Cl` [Example 16, Azetidin-1-yl-[4-(5-chloro-4-methylamino-pyrimidin-2-ylamino)-3-methoxy-phenyl]-methanone] came in with a Ki of 5.2 nM. This Ki lies about 5.4-fold lower than the previous one. With `COCCOc1nc(Nc2ccc(C(=O)N3CCOCC3)cc2OC)ncc1Br` [Example 139, {4-[5-Bromo-4-(2-methoxy-ethoxy)-pyrimidin-2-ylamino]-3-methoxy-phenyl}-morpholin-4-yl-methanone], the Ki was 5.7 nM.

`COc1cc(C(=O)N2CCOCC2)ccc1Nc1ncc(Cl)c(NC2CCOC2)n1` (stereo not drawn) [Example 214, {4-[5-Chloro-4-(tetrahydro-furan-3-ylamino)-pyrimidin-2-ylamino]-3-methoxy-phenyl}-morpholin-4-yl-methanone] gave a Ki of 18.4 nM. For `CNc1nc(Nc2ccc(C(=O)NCC(F)F)cc2OC)ncc1C#N` [Example 205, 4-(5-Cyano-4-methylamino-pyrimidin-2-ylamino)-N-(2,2-difluoro-ethyl)-3-methoxy-benzamide], the Ki is 12.1 nM. Against the preceding compound, the Ki is about 1.5-fold lower.

`CNc1nc(Nc2cc(OC)c(C(=O)N3CCCC3)cc2Cl)ncc1Cl` [Example 156, [5-Chloro-4-(5-chloro-4-methylamino-pyrimidin-2-ylamino)-2-methoxy-phenyl]-pyrrolidin-1-yl-methanone] showed a Ki of 7.4 nM.

`CNc1nc(Nc2ccc(C(=O)N3CCOCC3)cc2OC(F)F)ncc1Cl` [Example 7, [4-(5-Chloro-4-methylamino-pyrimidin-2-ylamino)-3-difluoromethoxy-phenyl]-morpholin-4-yl-methanone]: the Ki turned out to be 4.9 nM.

`CNc1nc(Nc2ccc(C(=O)N3CCCC3)cc2OC)ncc1Cl` [Example 32, [4-(5-Chloro-4-methylamino-pyrimidin-2-ylamino)-3-methoxy-phenyl]-pyrrolidin-1-yl-methanone]: the affinity corresponds to a Ki of 4.7 nM. Same read-out and setting: in the case of `CCNc1nc(Nc2cc(OC)c(C(=O)NCCOC)cc2Cl)ncc1C(F)(F)F` [Example 149, 5-Chloro-4-(4-ethylamino-5-trifluoromethyl-pyrimidin-2-ylamino)-2-methoxy-N-(2-methoxy-ethyl)-benzamide] it was 9.3 nM; in that of `CNC(=O)c1ccc(Nc2ncc(C#N)c(NC)n2)c(OC)c1` [Example 197, 4-(5-Cyano-4-methylamino-pyrimidin-2-ylamino)-3-methoxy-N-methyl-benzamide], 6.6 nM; in that of `CNc1nc(Nc2cc(OC)c(C(=O)NCCO)cc2Cl)ncc1Cl` [Example 142, 5-Chloro-4-(5-chloro-4-methylamino-pyrimidin-2-ylamino)-N-(2-hydroxy-ethyl)-2-methoxy-benzamide], 11 nM. Take `CNc1nc(Nc2ccc(C(=O)N3CCN(S(C)(=O)=O)CC3)cc2OC)ncc1Cl` [Example 33, [4-(5-Chloro-4-methylamino-pyrimidin-2-ylamino)-3-methoxy-phenyl]-(4-methanesulfonyl-piperazin-1-yl)-methanone]: affinity was put at a Ki of 3.6 nM. The same measure, in the same setting: under `COc1cc(C(=O)N2CCOCC2)ccc1Nc1ncc(Cl)c(NCC2CC2)n1` [Example 80, {4-[5-Chloro-4-(cyclopropylmethyl-amino)-pyrimidin-2-ylamino]-3-methoxy-phenyl}-morpholin-4-yl-methanone] stands 2.7 nM.

Still in this test, the particulars now being: Table 5.
`COc1cc(Nc2ncc(Cl)c(OC)n2)c(Cl)cc1C(=O)N1CCOCC1` [Example 260, [5-Chloro-4-(5-chloro-4-methoxy-pyrimidin-2-ylamino)-2-methoxy-phenyl]-morpholin-4-yl-methanone] yielded a Ki of 47 nM. This lies in the double-digit nanomolar range.

On to `COc1nc(Nc2ccc(C(=O)N3CCOCC3)cc2Cl)ncc1Cl` [Example 261, [3-Chloro-4-(5-chloro-4-methoxy-pyrimidin-2-ylamino)-phenyl]-morpholin-4-yl-methanone], for which the Ki came out at 47 nM. That is a double-digit nanomolar value.

The test is the same for the next values; noted with them: Table 6.
`CNc1nc(Nc2ccc(C(=O)N3CCOCC3)cc2OC2CCC2)ncc1C(F)(F)F` [Example 269, [3-Cyclobutoxy-4-(4-methylamino-5-trifluoromethyl-pyrimidin-2-ylamino)-phenyl]-morpholin-4-yl-methanone] came in with an inhibition constant Ki of 2.5 nM. This lies in the single-digit nanomolar range.

Compound `CNc1nc(Nc2ccc(C(=O)N3CCOCC3)cc2OCC2CC2)ncc1C(F)(F)F` [Example 285, [3-Cyclopropyl-methoxy-4-(4-methylamino-5-trifluoromethyl-pyrimidin-2-ylamino)-phenyl]-morpholin-4-yl-methanone] returned a Ki of 6.5 nM. Same read-out and setting: in the case of `CCNc1nc(Nc2cc(F)c(C(=O)N3CCC[C@H]3COC)cc2OC)ncc1C(F)(F)F` [Example 306, [4-(4-Ethylamino-5-trifluoromethyl-pyrimidin-2-ylamino)-2-fluoro-5-methoxy-phenyl]-((S)-2-methoxymethyl-pyrrolidin-1-yl)-methanone] it was 0.6 nM; in that of `CNc1nc(Nc2ccc(C(=O)NC3CCN(C)CC3)cc2OC)ncc1C(F)(F)F` [Example 282, 3-Methoxy-4-(4-methylamino-5-trifluoromethyl-pyrimidin-2-ylamino)-N-(1-methyl-piperidin-4-yl)-benzamide], 0.6 nM. On the same count and under the same terms, in the case of `CNc1nc(Nc2ccc(C(=O)N3CC4CCC(C3)O4)cc2OC)ncc1C(F)(F)F` [Example 272, [3-Methoxy-4-(4-methylamino-5-trifluoromethyl-pyrimidin-2-ylamino)-phenyl]-(8-oxa-3-aza-bicyclo[3.2.1]oct-3-yl)-methanone] it was 1.7 nM; in that of `CNc1nc(Nc2ccc(C(=O)N3CCOCC3)c(F)c2OC)ncc1C(F)(F)F` [Example 297, [2-Fluoro-3-methoxy-4-(4-methylamino-5-trifluoromethyl-pyrimidin-2-ylamino)-phenyl]-morpholin-4-yl-methanone], 14.5 nM.

`CNc1nc(Nc2cc(F)c(C(=O)N3CCC[C@H]3COC)cc2OC)ncc1C(F)(F)F` [Example 305, [2-Fluoro-5-methoxy-4-(4-methylamino-5-trifluoromethyl-pyrimidin-2-ylamino)-phenyl]-((S)-2-methoxymethyl-pyrrolidin-1-yl)-methanone] displayed a Ki of 3 nM.

As for `CNc1nc(Nc2ccc(C(=O)N3CCOCC3)cc2Cl)ncc1C(F)(F)F` [Example 291, [3-Chloro-4-(4-methylamino-5-trifluoromethyl-pyrimidin-2-ylamino)-phenyl]-morpholin-4-yl-methanone], the affinity corresponds to a Ki of 17 nM. For the compound `CCNc1nc(Nc2cc(F)c(C(=O)N(C)CCOC)cc2OC)ncc1C(F)(F)F` [Example 304, 4-(4-Ethylamino-5-trifluoromethyl-pyrimidin-2-ylamino)-2-fluoro-5-methoxy-N-(2-methoxy-ethyl)-N-methyl-benzamide], affinity was put at a Ki of 1.6 nM.

The same test, now with this note: Table 7.
Compound `CCNc1nc(Nc2cc(F)c(C(=O)N3C[C@@H](C)O[C@@H](C)C3)cc2OC)ncc1C#N` [Example 319, 2-[4-((2R,6S)-2,6-Dimethyl-morpholine-4-carbonyl)-5-fluoro-2-methoxy-phenylamino]-4-ethylamino-pyrimidine-5-carbonitrile] gave a Ki of 19.4 nM.

Source of the values: patent publication US8802674B2, “Aminopyrimidine derivatives as LRRK2 modulators” (Genentech, Inc., priority 2011, dated 2014).
